Target: Bromodomain-containing protein 4 (Homo sapiens, UniProt O60885)
Assay: Time Resolved Fluorescence Resonance Energy Transfer (TR-FRET) Assay: The binding of compounds to bromodomain BRD4 (44-168), BRD4 (333-460), and BRD4 (1-477 or 44-460) was assessed using a time resolved fluorescent resonance energy transfer binding assay (1), that measures the binding of a fluorescently labeled probe molecule to the bromodomain protein. The bromodomain protein, fluorescent probe molecule (either a biotinylated histone peptide or a fluorescently labeled small molecule), and dose-responded test compound are incubated together to reach thermodynamic equilibrium. In the absence of a test compound, the bromodomain and small molecule are bound, resulting in a high fluorescent signal. In the presence of a sufficient concentration of inhibitor, this intercation is disrupted resulting in a lost of fluorescent resonance energy transfer.All assay components were dissolved in buffer composition 20 mM Hepes pH 7.5, 150 mM NaCl, 5 mM DTT, 0.005% Tween 20, and 100 ug/ml BSA for BRD4 (1-477 and 44-460). The final concentrations of the bromodomain proteins are 1.6 nM BRD4(44-168), 1 nM BRD4(333-460), and 1 nM BRD4(1-477 or 44-460), and the fluorescent probe molecule is 100 nM, 50 nM, and 7.5 nM respectively. All proteins were biotinylated. A streptavidin labeled with terbium cryptate (Cisbio SA-Tb) was used as detection, and pre-mixed with the bromodomain protein at a final concentration of 0.2 nM. In some instances for BRD4 (44-460), anti-His terbium cryptate was used as a detection. 7.5 nl of dose-responded test compound or dmso vehicle (0.0375%) was pre-spotted in a black Corning 384 well plate and 10 ul each of bromodomain/detection reagent and fluorescent small molecule solution were added to the plate, and the reaction incubated for 60 min at room temperature. Plates were then read on EnVision plate reader, (λex=340 nm, acceptor λEm=520 nm, and donor λEm=615 nm, LANCE D400 mirror). Time resolved fluorescnce intensity measurements were made at both emissions, and the ratio of acceptor/donor was calculated and used for data analysis.

`COc1nnn(C)c1-c1cnc2c3c(OC)ncc(S(C)(=O)=O)c3n([C@H](c3ccccc3)C3CCOCC3)c2c1` and `Cc1nnn(C)c1-c1cnc2c3c(OC(C)C)ncc(S(C)(=O)=O)c3n(C(c3ccccc3)C3CCC(F)(F)CC3)c2c1` (stereo not drawn) cannot be ordered by IC50: < 0.01 µM for the first, < 0.01 µM for the second.

`Cc1nnn(C)c1-c1cnc2c3c(N(C)C(C)C)ncc(S(C)(=O)=O)c3n(C(c3ccccc3)C3CCC(F)(F)CC3)c2c1` (stereo not drawn) and `Cc1nnn(C)c1-c1cnc2c3c(NC(C)C)ncc(S(C)(=O)=O)c3n(C(c3ccccc3)C3CCC(F)(F)CC3)c2c1` (stereo not drawn) cannot be ordered by IC50: < 0.01 µM for the first, < 0.01 µM for the second.

`Cc1nnn(C)c1-c1cnc2c3ccc(N4CCN(C)CC4)nc3n(C(c3ccccc3)C3CCC(F)(F)CC3)c2c1` (stereo not drawn) and `CNCCN(C)c1ccc2c3ncc(-c4c(C)nnn4C)cc3n(C(c3ccccc3)C3CCC(F)(F)CC3)c2n1` (stereo not drawn) cannot be ordered by IC50: < 0.001 µM for the first, < 0.01 µM for the second.

`COC1CN(c2ncc(S(C)(=O)=O)c3c2c2ncc(-c4c(C)nnn4C)cc2n3C(c2ccccc2)C2CCC(F)(F)CC2)C1` (stereo not drawn) and `Cc1nnn(C)c1-c1cnc2c3c(NCC(C)C)ncc(S(C)(=O)=O)c3n(C(c3ccccc3)C3CCC(F)(F)CC3)c2c1` (stereo not drawn) cannot be ordered by IC50: < 0.01 µM for the first, < 0.01 µM for the second.

— ChEMBL document CHEMBL5726285, “Tricyclic compounds as anticancer agents” (2017)
